The record followed here is ChEMBL document CHEMBL4680343, “Nosiheptide analogues as potential antibacterial agents via dehydroalanine region modifications: Semi-synthesis, antimicrobial activity and molecular docking study” (2021).

Assay type in all cases: functional
Details in all cases: time 16-20 hrs

The test system of experiment [1] is Staphylococcus aureus. As to the kind of experiment: Antimicrobial activity against methicillin-resistant Staphylococcus aureus assessed as inhibition of microbial growth incubated for 16 to 20 hrs under ambient air condition by broth microdilution assay. For orientation: In broth dilution the organism is exposed to a series of concentrations in liquid medium.

Experiment [2] has as its system Staphylococcus aureus. Kind of experiment: Antimicrobial activity against Staphylococcus aureus ATCC 25923 assessed as inhibition of microbial growth incubated for 16 to 20 hrs under ambient air condition by broth microdilution assay.
Another experiment deals with Enterococcus faecium. As to the kind of experiment: Antimicrobial activity against vancomycin-resistant Enterococcus faecium assessed as inhibition of microbial growth incubated for 16 to 20 hrs under ambient air condition by broth microdilution assay.

Turning to `C/C=C1\NC(=O)[C@H]([C@@H](C)O)NC(=O)c2csc(n2)-c2cc(O)c(-c3nc(C(=O)NC(CNc4ccccc4I)C(N)=O)cs3)nc2-c2csc(n2)[C@@H]2CSC(=O)c3[nH]c4cccc(c4c3C)COC(=O)[C@H](O)C[C@H](NC(=O)c3csc1n3)c1nc(cs1)C(=O)N2` (stereo partly drawn), the minimum inhibitory concentration (MIC) (usually the lowest concentration that inhibits growth of the organism) amounted to 0.0078 µg/mL in the experiment on Staphylococcus aureus [1], 0.062 µg/mL with Staphylococcus aureus [2] and 0.015 µg/mL in the experiment with Enterococcus faecium.
As to `C/C=C1\NC(=O)[C@H]([C@@H](C)O)NC(=O)c2csc(n2)-c2cc(O)c(-c3nc(C(=O)NC(CNc4ccccc4C)C(N)=O)cs3)nc2-c2csc(n2)[C@@H]2CSC(=O)c3[nH]c4cccc(c4c3C)COC(=O)[C@H](O)C[C@H](NC(=O)c3csc1n3)c1nc(cs1)C(=O)N2` (stereo partly drawn), the minimal inhibitory concentration (MIC) is below 0.0039 µg/mL in the experiment with Staphylococcus aureus [1], 0.015 µg/mL in the experiment on Staphylococcus aureus [2] and 0.015 µg/mL in the experiment with Enterococcus faecium.
Consider `C/C=C1\NC(=O)[C@H]([C@@H](C)O)NC(=O)c2csc(n2)-c2cc(O)c(-c3nc(C(=O)NC(CNc4ccc(F)cc4)C(N)=O)cs3)nc2-c2csc(n2)[C@@H]2CSC(=O)c3[nH]c4cccc(c4c3C)COC(=O)[C@H](O)C[C@H](NC(=O)c3csc1n3)c1nc(cs1)C(=O)N2` (stereo partly drawn), for which the results for the MIC in the experiment with Staphylococcus aureus [1], in the experiment on Staphylococcus aureus [2] and in the experiment with Enterococcus faecium were 0.015 µg/mL, 0.031 µg/mL and 0.031 µg/mL, respectively.
Consider `C/C=C1\NC(=O)[C@H]([C@@H](C)O)NC(=O)c2csc(n2)-c2cc(O)c(-c3nc(C(=O)NC(CNc4cccc(C)c4)C(N)=O)cs3)nc2-c2csc(n2)[C@@H]2CSC(=O)c3[nH]c4cccc(c4c3C)COC(=O)[C@H](O)C[C@H](NC(=O)c3csc1n3)c1nc(cs1)C(=O)N2` (stereo partly drawn), for which the minimal inhibitory concentration (MIC) is below 0.0039 µg/mL in the experiment with Staphylococcus aureus [1], 0.031 µg/mL in the experiment with Staphylococcus aureus [2] and 0.015 µg/mL in the experiment on Enterococcus faecium.
For the compound `C/C=C1\NC(=O)[C@H]([C@@H](C)O)NC(=O)c2csc(n2)-c2cc(O)c(-c3nc(C(=O)NC(CNc4ccc(Br)cc4)C(N)=O)cs3)nc2-c2csc(n2)[C@@H]2CSC(=O)c3[nH]c4cccc(c4c3C)COC(=O)[C@H](O)C[C@H](NC(=O)c3csc1n3)c1nc(cs1)C(=O)N2` (stereo partly drawn), the MIC in the experiment on Staphylococcus aureus [1] turned out to be 0.015 µg/mL; with Staphylococcus aureus [2], 0.062 µg/mL; in the experiment with Enterococcus faecium, 0.031 µg/mL.
Taken in the same sequence, the figures for `C/C=C1\NC(=O)[C@H]([C@@H](C)O)NC(=O)c2csc(n2)-c2cc(O)c(-c3nc(C(=O)NC(CNc4cccc(F)c4)C(N)=O)cs3)nc2-c2csc(n2)[C@@H]2CSC(=O)c3[nH]c4cccc(c4c3C)COC(=O)[C@H](O)C[C@H](NC(=O)c3csc1n3)c1nc(cs1)C(=O)N2` (stereo partly drawn) were 0.015 µg/mL, 0.031 µg/mL and 0.031 µg/mL.
Taken in the same sequence, the figures for `C/C=C1\NC(=O)[C@H]([C@@H](C)O)NC(=O)c2csc(n2)-c2cc(O)c(-c3nc(C(=O)NC(CNc4cccc(I)c4)C(N)=O)cs3)nc2-c2csc(n2)[C@@H]2CSC(=O)c3[nH]c4cccc(c4c3C)COC(=O)[C@H](O)C[C@H](NC(=O)c3csc1n3)c1nc(cs1)C(=O)N2` (stereo partly drawn) were below 0.0039 µg/mL, 0.031 µg/mL and 0.0078 µg/mL.
The corresponding values for `C=C(NC(=O)c1csc(-c2nc3c(cc2O)-c2nc(cs2)C(=O)N[C@@H]([C@@H](C)O)C(=O)N/C(=C\C)c2nc(cs2)C(=O)N[C@H]2C[C@@H](O)C(=O)OCc4cccc5[nH]c(c(C)c45)C(=O)SC[C@H](NC(=O)c4csc2n4)c2nc-3cs2)n1)C(N)=O` are 0.0078 µg/mL, 0.062 µg/mL and 0.031 µg/mL.
As to `C/C=C1\NC(=O)[C@H]([C@@H](C)O)NC(=O)c2csc(n2)-c2cc(O)c(-c3nc(C(=O)NC(CNc4cccc(C(F)(F)F)c4)C(N)=O)cs3)nc2-c2csc(n2)[C@@H]2CSC(=O)c3[nH]c4cccc(c4c3C)COC(=O)[C@H](O)C[C@H](NC(=O)c3csc1n3)c1nc(cs1)C(=O)N2` (stereo partly drawn), the values for the MIC with Staphylococcus aureus [1], with Staphylococcus aureus [2] and in the experiment on Enterococcus faecium were 0.0078 µg/mL, 0.062 µg/mL and 0.031 µg/mL, respectively.
Taken in the same sequence, the figures for `C/C=C1\NC(=O)[C@H]([C@@H](C)O)NC(=O)c2csc(n2)-c2cc(O)c(-c3nc(C(=O)NC(CNc4ccccc4Br)C(N)=O)cs3)nc2-c2csc(n2)[C@@H]2CSC(=O)c3[nH]c4cccc(c4c3C)COC(=O)[C@H](O)C[C@H](NC(=O)c3csc1n3)c1nc(cs1)C(=O)N2` (stereo partly drawn) were below 0.0039 µg/mL, 0.015 µg/mL and 0.015 µg/mL.
The corresponding values for `C/C=C1\NC(=O)[C@H]([C@@H](C)O)NC(=O)c2csc(n2)-c2cc(O)c(-c3nc(C(=O)NC(CNc4ccccc4F)C(N)=O)cs3)nc2-c2csc(n2)[C@@H]2CSC(=O)c3[nH]c4cccc(c4c3C)COC(=O)[C@H](O)C[C@H](NC(=O)c3csc1n3)c1nc(cs1)C(=O)N2` (stereo partly drawn) are below 0.0039 µg/mL, 0.062 µg/mL and 0.015 µg/mL.
The corresponding values for `C/C=C1\NC(=O)[C@H]([C@@H](C)O)NC(=O)c2csc(n2)-c2cc(O)c(-c3nc(C(=O)NC(CNc4cccc(Br)c4)C(N)=O)cs3)nc2-c2csc(n2)[C@@H]2CSC(=O)c3[nH]c4cccc(c4c3C)COC(=O)[C@H](O)C[C@H](NC(=O)c3csc1n3)c1nc(cs1)C(=O)N2` (stereo partly drawn) are 0.0078 µg/mL, 0.062 µg/mL and 0.031 µg/mL.
Take `C/C=C1\NC(=O)[C@H]([C@@H](C)O)NC(=O)c2csc(n2)-c2cc(O)c(-c3nc(C(=O)NC(CNc4ccccc4C(F)(F)F)C(N)=O)cs3)nc2-c2csc(n2)[C@@H]2CSC(=O)c3[nH]c4cccc(c4c3C)COC(=O)[C@H](O)C[C@H](NC(=O)c3csc1n3)c1nc(cs1)C(=O)N2` (stereo partly drawn): the minimum inhibitory concentration (MIC) in the experiment with Staphylococcus aureus [1] is below 0.0039 µg/mL; in the experiment with Staphylococcus aureus [2] it was 0.031 µg/mL; in the experiment on Enterococcus faecium, 0.015 µg/mL.
Taken in the same sequence, the figures for `C/C=C1\NC(=O)[C@H]([C@@H](C)O)NC(=O)c2csc(n2)-c2cc(O)c(-c3nc(C(=O)NC(CNc4ccc(C(F)(F)F)cc4)C(N)=O)cs3)nc2-c2csc(n2)[C@@H]2CSC(=O)c3[nH]c4cccc(c4c3C)COC(=O)[C@H](O)C[C@H](NC(=O)c3csc1n3)c1nc(cs1)C(=O)N2` (stereo partly drawn) were below 0.0039 µg/mL, 0.031 µg/mL and 0.015 µg/mL.
The corresponding values for `C/C=C1\NC(=O)[C@H]([C@@H](C)O)NC(=O)c2csc(n2)-c2cc(O)c(-c3nc(C(=O)NC(CNc4ccc(I)cc4)C(N)=O)cs3)nc2-c2csc(n2)[C@@H]2CSC(=O)c3[nH]c4cccc(c4c3C)COC(=O)[C@H](O)C[C@H](NC(=O)c3csc1n3)c1nc(cs1)C(=O)N2` (stereo partly drawn) are below 0.0039 µg/mL, 0.062 µg/mL and 0.015 µg/mL.
The corresponding values for `C/C=C1\NC(=O)[C@H]([C@@H](C)O)NC(=O)c2csc(n2)-c2cc(O)c(-c3nc(C(=O)NC(CNc4ccc(C)cc4)C(N)=O)cs3)nc2-c2csc(n2)[C@@H]2CSC(=O)c3[nH]c4cccc(c4c3C)COC(=O)[C@H](O)C[C@H](NC(=O)c3csc1n3)c1nc(cs1)C(=O)N2` (stereo partly drawn) are 0.0078 µg/mL, 0.062 µg/mL and 0.031 µg/mL.
